{
  "source": "paper PMC6886798",
  "about": "“Expression of myeloid Src-family kinases is associated with poor prognosis in AML and influences Flt3-ITD kinase inhibitor acquired resistance” (PLoS ONE, 2019)",
  "assay_in_all_cases": "KINOMEscan",
  "assay_type_in_all_cases": "binding",
  "conditions_in_all_cases": "1.0 µM",
  "key": {"ULK2": {"target": "T1, ULK2 (Homo sapiens, UniProt Q8IYT8)", "T1 construct": "DNA tag (qPCR barcode); purchased Eurofins/DiscoverX KINOMEscan scanMAX", "experimental": "(§1) Kinase retention to the immobilized ligand is then measured using quantitative real-time PCR for each kinase-specific DNA barcode."}, "PIK3CD": {"target": "T2, PIK3CD (Homo sapiens, UniProt O00329)", "T2 construct": "purchased Eurofins/DiscoverX KINOMEscan scanMAX", "experimental": "as §1"}, "ERK4": {"target": "T3, ERK4 (Homo sapiens, UniProt P31152)", "T3 construct": "purchased Eurofins/DiscoverX KINOMEscan scanMAX", "experimental": "as §1"}, "CSNK1E": {"target": "T4, CSNK1E (Homo sapiens, UniProt P49674)", "T4 construct": "purchased Eurofins/DiscoverX KINOMEscan scanMAX", "experimental": "as §1"}, "JNK1": {"target": "T5, JNK1 (Homo sapiens, UniProt P45983)", "T5 construct": "purchased Eurofins/DiscoverX KINOMEscan scanMAX", "experimental": "as §1"}, "RAF1": {"target": "T6, RAF1 (Homo sapiens, UniProt P04049)", "T6 construct": "purchased Eurofins/DiscoverX KINOMEscan scanMAX", "experimental": "as §1"}, "RIOK3": {"target": "T7, RIOK3 (Homo sapiens, UniProt O14730)", "T7 construct": "purchased Eurofins/DiscoverX KINOMEscan scanMAX", "experimental": "as §1"}, "MAP4K5": {"target": "T8, MAP4K5 (Homo sapiens, UniProt Q9Y4K4)", "T8 construct": "purchased Eurofins/DiscoverX KINOMEscan scanMAX", "experimental": "as §1"}, "MST3": {"target": "T9, MST3 (Homo sapiens, UniProt Q9Y6E0)", "T9 construct": "purchased Eurofins/DiscoverX KINOMEscan scanMAX", "experimental": "as §1"}, "EPHB2": {"target": "T10, EPHB2 (Homo sapiens, UniProt P29323)", "T10 construct": "purchased Eurofins/DiscoverX KINOMEscan scanMAX", "experimental": "as §1"}, "KIT(V559D)": {"target": "T11, KIT(V559D) (Homo sapiens, UniProt P10721, V559D)", "T11 construct": "purchased Eurofins/DiscoverX KINOMEscan scanMAX", "experimental": "as §1"}, "PCTK3": {"target": "T12, PCTK3 (Homo sapiens, UniProt Q07002)", "T12 construct": "purchased Eurofins/DiscoverX KINOMEscan scanMAX", "experimental": "as §1"}, "PAK6": {"target": "T13, PAK6 (Homo sapiens, UniProt Q9NQU5)", "T13 construct": "purchased Eurofins/DiscoverX KINOMEscan scanMAX", "experimental": "as §1"}, "CDKL1": {"target": "T14, CDKL1 (Homo sapiens, UniProt Q00532)", "T14 construct": "purchased Eurofins/DiscoverX KINOMEscan scanMAX", "experimental": "as §1"}, "ALK": {"target": "T15, ALK (Homo sapiens, UniProt Q9UM73)", "T15 construct": "purchased Eurofins/DiscoverX KINOMEscan scanMAX", "experimental": "as §1"}, "SgK110": {"target": "T16, SgK110 (Homo sapiens, UniProt P0C264)", "T16 construct": "purchased Eurofins/DiscoverX KINOMEscan scanMAX", "experimental": "as §1"}, "MKNK2": {"target": "T17, MKNK2 (Homo sapiens, UniProt Q9HBH9)", "T17 construct": "purchased Eurofins/DiscoverX KINOMEscan scanMAX", "experimental": "as §1"}, "PIM1": {"target": "T18, PIM1 (Homo sapiens, UniProt P11309)", "T18 construct": "purchased Eurofins/DiscoverX KINOMEscan scanMAX", "experimental": "as §1"}, "TLK2": {"target": "T19, TLK2 (Homo sapiens, UniProt Q86UE8)", "T19 construct": "purchased Eurofins/DiscoverX KINOMEscan scanMAX", "experimental": "as §1"}, "LRRK2(G2019S)": {"target": "T20, LRRK2(G2019S) (Homo sapiens, UniProt Q5S007, G2019S)", "T20 construct": "purchased Eurofins/DiscoverX KINOMEscan scanMAX", "T20 sequence (Q5S007 whole entry G2019S)": "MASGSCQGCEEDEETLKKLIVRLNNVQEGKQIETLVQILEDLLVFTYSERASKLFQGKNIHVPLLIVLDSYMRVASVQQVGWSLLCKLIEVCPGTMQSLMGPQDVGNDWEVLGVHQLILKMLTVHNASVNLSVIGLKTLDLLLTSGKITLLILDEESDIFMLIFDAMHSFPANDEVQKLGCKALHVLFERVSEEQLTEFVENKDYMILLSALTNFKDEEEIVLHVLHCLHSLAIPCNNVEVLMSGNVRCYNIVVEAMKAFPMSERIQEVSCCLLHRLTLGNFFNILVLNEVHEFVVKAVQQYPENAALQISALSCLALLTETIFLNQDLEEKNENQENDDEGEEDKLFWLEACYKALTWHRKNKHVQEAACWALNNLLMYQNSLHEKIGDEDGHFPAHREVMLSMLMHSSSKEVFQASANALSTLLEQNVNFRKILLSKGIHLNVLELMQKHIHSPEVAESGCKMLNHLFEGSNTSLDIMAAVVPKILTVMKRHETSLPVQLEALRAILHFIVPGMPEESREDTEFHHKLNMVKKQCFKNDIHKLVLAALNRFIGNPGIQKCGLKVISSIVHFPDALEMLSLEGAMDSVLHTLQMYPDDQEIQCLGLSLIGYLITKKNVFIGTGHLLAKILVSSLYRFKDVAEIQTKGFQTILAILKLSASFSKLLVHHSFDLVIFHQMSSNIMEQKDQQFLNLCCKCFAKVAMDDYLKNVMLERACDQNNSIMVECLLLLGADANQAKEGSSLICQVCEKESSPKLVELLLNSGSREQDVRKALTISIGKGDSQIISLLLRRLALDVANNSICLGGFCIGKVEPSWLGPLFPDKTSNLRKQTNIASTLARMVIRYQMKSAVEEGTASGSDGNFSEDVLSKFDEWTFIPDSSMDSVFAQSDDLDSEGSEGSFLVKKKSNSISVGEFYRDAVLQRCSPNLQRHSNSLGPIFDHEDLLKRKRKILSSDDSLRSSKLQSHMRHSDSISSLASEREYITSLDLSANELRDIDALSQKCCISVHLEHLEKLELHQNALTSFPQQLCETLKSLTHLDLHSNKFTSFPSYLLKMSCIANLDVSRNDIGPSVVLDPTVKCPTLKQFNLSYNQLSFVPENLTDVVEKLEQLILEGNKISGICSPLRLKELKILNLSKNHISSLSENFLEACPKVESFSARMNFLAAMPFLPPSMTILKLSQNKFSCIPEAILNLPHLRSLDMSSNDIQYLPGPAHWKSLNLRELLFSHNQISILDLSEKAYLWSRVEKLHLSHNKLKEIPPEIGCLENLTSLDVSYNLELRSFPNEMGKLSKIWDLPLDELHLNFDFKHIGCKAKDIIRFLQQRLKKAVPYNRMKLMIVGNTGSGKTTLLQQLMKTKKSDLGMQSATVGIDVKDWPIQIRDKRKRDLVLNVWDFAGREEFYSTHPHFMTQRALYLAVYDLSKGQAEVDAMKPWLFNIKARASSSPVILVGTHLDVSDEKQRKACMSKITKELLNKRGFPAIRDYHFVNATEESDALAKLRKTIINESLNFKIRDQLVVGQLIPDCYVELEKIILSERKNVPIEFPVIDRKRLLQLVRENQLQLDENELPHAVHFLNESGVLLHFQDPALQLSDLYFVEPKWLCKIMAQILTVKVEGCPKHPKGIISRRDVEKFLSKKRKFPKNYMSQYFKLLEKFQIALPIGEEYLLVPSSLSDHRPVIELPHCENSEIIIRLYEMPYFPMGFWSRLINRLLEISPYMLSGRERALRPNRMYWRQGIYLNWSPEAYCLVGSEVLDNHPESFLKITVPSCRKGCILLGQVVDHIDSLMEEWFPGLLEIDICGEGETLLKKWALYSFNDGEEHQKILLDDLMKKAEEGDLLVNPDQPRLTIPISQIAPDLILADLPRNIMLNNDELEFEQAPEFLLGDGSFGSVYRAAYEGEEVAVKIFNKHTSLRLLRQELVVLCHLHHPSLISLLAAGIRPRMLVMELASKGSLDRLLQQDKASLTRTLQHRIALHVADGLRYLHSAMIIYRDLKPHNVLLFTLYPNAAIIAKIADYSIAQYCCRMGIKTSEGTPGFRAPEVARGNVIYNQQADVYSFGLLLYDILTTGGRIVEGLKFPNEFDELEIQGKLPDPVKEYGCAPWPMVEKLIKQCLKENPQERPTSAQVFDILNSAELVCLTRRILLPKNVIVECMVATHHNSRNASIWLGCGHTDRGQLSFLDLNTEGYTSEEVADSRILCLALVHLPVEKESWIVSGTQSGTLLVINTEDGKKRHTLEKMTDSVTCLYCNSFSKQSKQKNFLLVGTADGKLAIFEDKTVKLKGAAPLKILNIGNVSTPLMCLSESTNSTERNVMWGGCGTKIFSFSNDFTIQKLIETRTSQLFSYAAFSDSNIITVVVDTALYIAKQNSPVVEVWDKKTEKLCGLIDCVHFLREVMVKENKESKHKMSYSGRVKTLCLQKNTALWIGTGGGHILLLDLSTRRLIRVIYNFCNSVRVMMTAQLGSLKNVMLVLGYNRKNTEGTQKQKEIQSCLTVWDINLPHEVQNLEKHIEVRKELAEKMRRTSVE", "experimental": "as §1"}, "PFTK1": {"target": "T21, PFTK1 (Homo sapiens, UniProt O94921)", "T21 construct": "purchased Eurofins/DiscoverX KINOMEscan scanMAX", "experimental": "as §1"}, "NEK5": {"target": "T22, NEK5 (Homo sapiens, UniProt Q6P3R8)", "T22 construct": "purchased Eurofins/DiscoverX KINOMEscan scanMAX", "experimental": "as §1"}, "PHKG1": {"target": "T23, PHKG1 (Homo sapiens, UniProt Q16816)", "T23 construct": "purchased Eurofins/DiscoverX KINOMEscan scanMAX", "experimental": "as §1"}, "ERBB2": {"target": "T24, ERBB2 (Homo sapiens, UniProt P04626)", "T24 construct": "purchased Eurofins/DiscoverX KINOMEscan scanMAX", "T24 sequence (P04626 23-1255)": "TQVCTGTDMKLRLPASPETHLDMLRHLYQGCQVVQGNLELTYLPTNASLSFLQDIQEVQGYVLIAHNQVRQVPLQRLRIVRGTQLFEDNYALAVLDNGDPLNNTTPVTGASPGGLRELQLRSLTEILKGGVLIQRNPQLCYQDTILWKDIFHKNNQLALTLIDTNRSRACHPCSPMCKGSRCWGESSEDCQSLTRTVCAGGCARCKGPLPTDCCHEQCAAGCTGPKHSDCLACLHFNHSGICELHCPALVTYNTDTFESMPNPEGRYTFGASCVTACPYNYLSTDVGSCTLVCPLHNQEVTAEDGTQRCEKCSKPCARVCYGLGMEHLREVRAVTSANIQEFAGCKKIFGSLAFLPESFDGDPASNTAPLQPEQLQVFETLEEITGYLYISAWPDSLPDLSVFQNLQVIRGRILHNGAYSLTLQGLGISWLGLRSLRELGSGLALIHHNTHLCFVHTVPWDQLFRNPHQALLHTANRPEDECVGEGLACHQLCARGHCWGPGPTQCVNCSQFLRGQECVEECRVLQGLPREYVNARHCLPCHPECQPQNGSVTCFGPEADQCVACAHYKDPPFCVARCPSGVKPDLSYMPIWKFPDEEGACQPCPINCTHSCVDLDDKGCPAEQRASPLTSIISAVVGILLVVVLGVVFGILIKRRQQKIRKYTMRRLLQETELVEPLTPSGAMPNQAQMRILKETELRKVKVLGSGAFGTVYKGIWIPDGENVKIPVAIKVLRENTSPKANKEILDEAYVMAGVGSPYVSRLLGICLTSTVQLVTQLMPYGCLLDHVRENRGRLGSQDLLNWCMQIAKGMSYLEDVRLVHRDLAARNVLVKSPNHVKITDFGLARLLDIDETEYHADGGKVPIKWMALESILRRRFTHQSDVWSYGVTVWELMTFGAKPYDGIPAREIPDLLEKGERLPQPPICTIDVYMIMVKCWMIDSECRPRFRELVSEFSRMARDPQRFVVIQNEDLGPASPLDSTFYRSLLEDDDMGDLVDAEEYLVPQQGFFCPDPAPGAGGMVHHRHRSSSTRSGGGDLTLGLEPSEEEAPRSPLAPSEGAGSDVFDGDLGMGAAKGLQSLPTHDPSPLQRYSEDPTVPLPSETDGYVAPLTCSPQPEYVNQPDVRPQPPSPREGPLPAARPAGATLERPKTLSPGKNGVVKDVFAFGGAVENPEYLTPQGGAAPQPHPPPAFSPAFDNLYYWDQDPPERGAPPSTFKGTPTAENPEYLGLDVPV", "experimental": "as §1"}, "NEK7": {"target": "T25, NEK7 (Homo sapiens, UniProt Q8TDX7)", "T25 construct": "purchased Eurofins/DiscoverX KINOMEscan scanMAX", "experimental": "as §1"}, "PIP5K1C": {"target": "T26, PIP5K1C (Homo sapiens, UniProt O60331)", "T26 construct": "purchased Eurofins/DiscoverX KINOMEscan scanMAX", "experimental": "as §1"}, "CHEK2": {"target": "T27, CHEK2 (Homo sapiens, UniProt O96017)", "T27 construct": "purchased Eurofins/DiscoverX KINOMEscan scanMAX", "experimental": "as §1"}, "GRK2": {"target": "T28, GRK2 (Homo sapiens, UniProt P25098)", "T28 construct": "purchased Eurofins/DiscoverX KINOMEscan scanMAX", "experimental": "as §1"}, "CSNK2A1": {"target": "T29, CSNK2A1 (Homo sapiens, UniProt P68400)", "T29 construct": "purchased Eurofins/DiscoverX KINOMEscan scanMAX", "experimental": "as §1"}, "DLK": {"target": "T30, DLK (Homo sapiens, UniProt Q12852)", "T30 construct": "purchased Eurofins/DiscoverX KINOMEscan scanMAX", "experimental": "as §1"}, "FLT3(D835H)": {"target": "T31, FLT3(D835H) (Homo sapiens, UniProt P36888, D835H)", "T31 construct": "purchased Eurofins/DiscoverX KINOMEscan scanMAX", "experimental": "as §1"}, "NIK": {"target": "T32, NIK (Homo sapiens, UniProt Q99558)", "T32 construct": "purchased Eurofins/DiscoverX KINOMEscan scanMAX", "experimental": "as §1"}, "BMPR2": {"target": "T33, BMPR2 (Homo sapiens, UniProt Q13873)", "T33 construct": "purchased Eurofins/DiscoverX KINOMEscan scanMAX", "experimental": "as §1"}, "PIM3": {"target": "T34, PIM3 (Homo sapiens, UniProt Q86V86)", "T34 construct": "purchased Eurofins/DiscoverX KINOMEscan scanMAX", "experimental": "as §1"}, "AKT2": {"target": "T35, AKT2 (Homo sapiens, UniProt P31751)", "T35 construct": "purchased Eurofins/DiscoverX KINOMEscan scanMAX", "experimental": "as §1"}, "SGK3": {"target": "T36, SGK3 (Homo sapiens, UniProt Q96BR1)", "T36 construct": "purchased Eurofins/DiscoverX KINOMEscan scanMAX", "experimental": "as §1"}, "CHEK1": {"target": "T37, CHEK1 (Homo sapiens, UniProt O14757)", "T37 construct": "purchased Eurofins/DiscoverX KINOMEscan scanMAX", "experimental": "as §1"}, "SIK2": {"target": "T38, SIK2 (Homo sapiens, UniProt Q9H0K1)", "T38 construct": "purchased Eurofins/DiscoverX KINOMEscan scanMAX", "experimental": "as §1"}, "ERK2": {"target": "T39, ERK2 (Homo sapiens, UniProt P28482)", "T39 construct": "purchased Eurofins/DiscoverX KINOMEscan scanMAX", "T39 sequence (P28482 whole entry)": "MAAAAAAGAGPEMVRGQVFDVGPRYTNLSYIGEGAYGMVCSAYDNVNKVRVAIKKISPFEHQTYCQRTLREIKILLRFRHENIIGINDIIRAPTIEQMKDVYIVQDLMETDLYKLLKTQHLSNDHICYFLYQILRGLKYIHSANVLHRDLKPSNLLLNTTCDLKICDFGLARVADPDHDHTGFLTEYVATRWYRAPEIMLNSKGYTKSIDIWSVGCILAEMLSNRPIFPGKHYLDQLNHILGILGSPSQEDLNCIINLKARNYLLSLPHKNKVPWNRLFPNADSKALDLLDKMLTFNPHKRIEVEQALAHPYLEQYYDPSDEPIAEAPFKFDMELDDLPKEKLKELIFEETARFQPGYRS", "experimental": "as §1"}, "PCTK1": {"target": "T40, PCTK1 (Homo sapiens, UniProt Q00536)", "T40 construct": "purchased Eurofins/DiscoverX KINOMEscan scanMAX", "T40 sequence (Q00536 whole entry)": "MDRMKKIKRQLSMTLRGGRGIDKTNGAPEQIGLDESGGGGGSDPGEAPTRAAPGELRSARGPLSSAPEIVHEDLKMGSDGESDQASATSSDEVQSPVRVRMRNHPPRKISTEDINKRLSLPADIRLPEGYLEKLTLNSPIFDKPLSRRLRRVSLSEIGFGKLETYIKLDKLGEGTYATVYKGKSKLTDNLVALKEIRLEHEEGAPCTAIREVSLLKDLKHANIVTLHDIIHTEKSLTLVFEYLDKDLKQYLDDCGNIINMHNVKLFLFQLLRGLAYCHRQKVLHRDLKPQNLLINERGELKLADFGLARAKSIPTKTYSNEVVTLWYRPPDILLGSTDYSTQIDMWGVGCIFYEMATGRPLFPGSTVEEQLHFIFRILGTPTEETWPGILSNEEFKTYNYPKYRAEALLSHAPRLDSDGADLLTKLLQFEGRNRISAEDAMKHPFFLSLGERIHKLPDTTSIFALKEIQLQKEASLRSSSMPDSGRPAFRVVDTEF", "experimental": "as §1"}, "PYK2": {"target": "T41, PYK2 (Homo sapiens, UniProt Q14289)", "T41 construct": "purchased Eurofins/DiscoverX KINOMEscan scanMAX", "experimental": "as §1"}, "MAPKAPK2": {"target": "T42, MAPKAPK2 (Homo sapiens, UniProt P49137)", "T42 construct": "purchased Eurofins/DiscoverX KINOMEscan scanMAX", "experimental": "as §1"}, "AURKB": {"target": "T43, AURKB (Homo sapiens, UniProt Q96GD4)", "T43 construct": "purchased Eurofins/DiscoverX KINOMEscan scanMAX", "experimental": "as §1"}},
  "data": [
    {"molecule": "CN1CCN(C2CCC(n3cc(-c4ccc(Oc5ccccc5)cc4)c4c(N)ncnc43)CC2)CC1", "note": "(stereo not shown) [A-419259]", "values": [
      {"measurement": "% Control", "setting": "ULK2", "value": 47, "unit": "%"},
      {"measurement": "% Control", "setting": "PIK3CD", "value": 100, "unit": "%"},
      {"measurement": "% Control", "setting": "ERK4", "value": 56, "unit": "%"},
      {"measurement": "% Control", "setting": "CSNK1E", "value": 1.1, "unit": "%"},
      {"measurement": "% Control", "setting": "JNK1", "value": 95, "unit": "%"},
      {"measurement": "% Control", "setting": "RAF1", "value": 40, "unit": "%"},
      {"measurement": "% Control", "setting": "RIOK3", "value": 64, "unit": "%"},
      {"measurement": "% Control", "setting": "MAP4K5", "value": 9.2, "unit": "%"},
      {"measurement": "% Control", "setting": "MST3", "value": 80, "unit": "%"},
      {"measurement": "% Control", "setting": "EPHB2", "value": 100, "unit": "%"},
      {"measurement": "% Control", "setting": "KIT(V559D)", "value": 0.05, "unit": "%"},
      {"measurement": "% Control", "setting": "PCTK3", "value": 100, "unit": "%"},
      {"measurement": "% Control", "setting": "PAK6", "value": 84, "unit": "%"},
      {"measurement": "% Control", "setting": "CDKL1", "value": 99, "unit": "%"},
      {"measurement": "% Control", "setting": "ALK", "value": 29, "unit": "%"},
      {"measurement": "% Control", "setting": "SgK110", "value": 100, "unit": "%"},
      {"measurement": "% Control", "setting": "MKNK2", "value": 8.3, "unit": "%"},
      {"measurement": "% Control", "setting": "PIM1", "value": 100, "unit": "%"},
      {"measurement": "% Control", "setting": "TLK2", "value": 100, "unit": "%"},
      {"measurement": "% Control", "setting": "LRRK2(G2019S)", "value": 100, "unit": "%"},
      {"measurement": "% Control", "setting": "PFTK1", "value": 63, "unit": "%"},
      {"measurement": "% Control", "setting": "NEK5", "value": 100, "unit": "%"},
      {"measurement": "% Control", "setting": "PHKG1", "value": 99, "unit": "%"},
      {"measurement": "% Control", "setting": "ERBB2", "value": 2.7, "unit": "%"},
      {"measurement": "% Control", "setting": "NEK7", "value": 91, "unit": "%"},
      {"measurement": "% Control", "setting": "PIP5K1C", "value": 89, "unit": "%"},
      {"measurement": "% Control", "setting": "CHEK2", "value": 40, "unit": "%"},
      {"measurement": "% Control", "setting": "GRK2", "value": 100, "unit": "%"},
      {"measurement": "% Control", "setting": "CSNK2A1", "value": 100, "unit": "%"},
      {"measurement": "% Control", "setting": "DLK", "value": 54, "unit": "%"},
      {"measurement": "% Control", "setting": "FLT3(D835H)", "value": 12, "unit": "%"},
      {"measurement": "% Control", "setting": "NIK", "value": 100, "unit": "%"},
      {"measurement": "% Control", "setting": "BMPR2", "value": 97, "unit": "%"},
      {"measurement": "% Control", "setting": "PIM3", "value": 100, "unit": "%"},
      {"measurement": "% Control", "setting": "AKT2", "value": 92, "unit": "%"},
      {"measurement": "% Control", "setting": "SGK3", "value": 77, "unit": "%"},
      {"measurement": "% Control", "setting": "CHEK1", "value": 54, "unit": "%"},
      {"measurement": "% Control", "setting": "SIK2", "value": 19, "unit": "%"},
      {"measurement": "% Control", "setting": "ERK2", "value": 77, "unit": "%"},
      {"measurement": "% Control", "setting": "PCTK1", "value": 99, "unit": "%"},
      {"measurement": "% Control", "setting": "PYK2", "value": 88, "unit": "%"},
      {"measurement": "% Control", "setting": "MAPKAPK2", "value": 100, "unit": "%"},
      {"measurement": "% Control", "setting": "AURKB", "value": 100, "unit": "%"}
    ]}
  ]
}
